EPA's ToxRefDB 2

Key:
mouse [1] = details: Carcinogenicity, b6c3f1, Oral, Feed, dose end: 58 week, group: systemic
rat [2] = details: Carcinogenicity, fischer, Oral, Feed, dose end: 78 week, group: systemic
mouse [3] = details: Subchronic oral toxicity in rodents, swiss albino, Gavage/Intubation, dose end: 14 day, group: systemic
rat [4] = details: Multigenerational reproductive toxicity study, sprague dawley, Oral, Feed, dose end: 2 generation
mouse [5] = details: Combined chronic toxicity/carcinogenicity, other, Oral, Feed, dose end: 24 month, group: systemic
rat [6] = details: Prenatal developmental toxicity study, wistar, Oral, Gavage/Intubation, dose end: 16 GD
mouse [7] = details: Carcinogenicity, other, Oral, Feed, dose end: 24 month, group: systemic
mouse [8] = details: Subchronic oral toxicity in rodents, cd1, Feed, dose end: 13 week, group: systemic, systemic / hematology / hemoglobin (hgb) / hemoglobin (hgb) + systemic / hematology / mean corpuscular hemoglobin concentration (mchc) / …
dog = details: Chronic toxicity, beagle, Oral, Feed, dose end: 54 week, group: systemic
rat [9] = details: Combined chronic toxicity/carcinogenicity, sprague dawley, Oral, Feed, dose end: 24 month, group: systemic
rat [10] = details: Subchronic oral toxicity in rodents, sprague dawley, Feed, dose end: 90 day
rat [11] = details: Combined chronic toxicity/carcinogenicity; sprague dawley; Oral; Feed; dose end: 104 week; group: systemic; systemic / in life observation / body weight / body weight gain + systemic / pathology microscopic / blood vessel / aneurysm + systemic / …
rat [12] = details: Carcinogenicity; other; Oral; Feed; dose end: 82 week; group: systemic; systemic / in life observation / clinical signs / fur (altered appearance) + systemic / in life observation / clinical signs / hunched …
[13] = systemic / pathology microscopic / liver / hyperplasia
[14] = systemic / pathology microscopic / liver / hyperplasia + systemic / pathology microscopic / liver / adenoma + systemic / pathology …
[15] = systemic / pathology microscopic / liver / neoplastic nodule
[16] = systemic / hematology / sulphemoglobin / sulphemoglobin
[17] = systemic / hematology / sulphemoglobin / sulphemoglobin + systemic / hematology / heinz body / heinz body + systemic / hematology / …
[18] = group: offspring, systemic / in life observation / body weight / offspring (pup) weight
[19] = group: parental, systemic / hematology / lymphocyte / lymphocyte + systemic / hematology / platelet / platelet + systemic / organ weight / spleen / nos + …
[20] = systemic / in life observation / mortality / mortality
[21] = systemic / in life observation / mortality / mortality + systemic / in life observation / body weight / body weight gain
[22] = group: developmental, developmental / developmental malformation / bone / fragmented + systemic / in life observation / clinical signs / reduced body size
[23] = group: maternal, systemic / in life observation / body weight / body weight gain + systemic / in life observation / clinical signs / convulsions + systemic…
[24] = systemic / pathology gross / urinary bladder / thickened
[25] = systemic / in life observation / clinical signs / [other] + systemic / in life observation / body weight / body weight + systemic / in life …
[26] = systemic / in life observation / clinical signs / [other] + systemic / in life observation / body weight / body weight gain + systemic / in …
[27] = systemic / in life observation / body weight / body weight gain + systemic / pathology gross / kidney / enlarged + systemic / pathology …
[28] = group: cholinesterase, cholinesterase / cholinesterase / cholinesterase / plasma cholinesterase (che)
[29] = group: systemic, systemic / hematology / mean corpuscular hemoglobin concentration (mchc) / mean corpuscular hemoglobin concentration (mchc) + systemic / …
[30] = group: systemic, systemic / pathology microscopic / kidney / pigmentation

O=Nc1ccc(Nc2ccccc2)cc1 [4-Nitrosodiphenylamine]
LOAEL (mouse [1]; [13]): 638 mg/kg/day | NOAEL (mouse [1]; [13]): < 638 mg/kg/day | LEL (mouse [1]; [14]): 638 mg/kg/day | NEL (mouse [1]; [14]): < 638 mg/kg/day | LOAEL (rat [2]; systemic / in life observation / body weight / body weight): 250 mg/kg/day | NOAEL (rat [2]; systemic / in life observation / body weight / body weight + systemic / pathology microscopic / liver / neoplastic nodule + systemic / …): 125 mg/kg/day | LEL (rat [2]; [15]): 125 mg/kg/day | NEL (rat [2]; [15]): < 125 mg/kg/day

O=C(NC(=O)c1c(F)cccc1F)Nc1ccc(Cl)cc1 [Diflubenzuron]
LEL (mouse [3]; [16]): 200 mg/kg/day | LOAEL (mouse [3]; [16]): 200 mg/kg/day | NEL (mouse [3]; [17]): 40 mg/kg/day | NOAEL (mouse [3]; [17]): 40 mg/kg/day | LEL (rat [4]; [18]): 3800 mg/kg/day | LOAEL (rat [4]; [18]): 3800 mg/kg/day | NEL (rat [4]; [18]): 360 mg/kg/day | NOAEL (rat [4]; [18]): 360 mg/kg/day | LEL (rat [4]; [19]): 36 mg/kg/day | LOAEL (rat [4]; [19]): 36 mg/kg/day | NEL (rat [4]; [19]): < 36 mg/kg/day | NOAEL (rat [4]; [19]): < 36 mg/kg/day

O=S1OCC2C(CO1)C1(Cl)C(Cl)=C(Cl)C2(Cl)C1(Cl)Cl (centres undefined) [Endosulfan]
NEL (mouse [5]; [20]): 0.9 mg/kg/day | LEL (mouse [5]; [21]): 2.7 mg/kg/day | LOAEL (mouse [5]; [21]): > 2.7 mg/kg/day | NOAEL (mouse [5]; [21]): ≥ 2.7 mg/kg/day | LEL (rat [6]; [22]): 6 mg/kg/day | LOAEL (rat [6]; [22]): 6 mg/kg/day | NEL (rat [6]; [22]): 2 mg/kg/day | NOAEL (rat [6]; [22]): 2 mg/kg/day | LEL (rat [6]; [23]): 6 mg/kg/day | LOAEL (rat [6]; [23]): 6 mg/kg/day | NEL (rat [6]; [23]): 2 mg/kg/day | NOAEL (rat [6]; [23]): 2 mg/kg/day | LOAEL (mouse [7]; [20]): 2.6 mg/kg/day | NOAEL (mouse [7]; systemic / in life observation / mortality / mortality + systemic / pathology gross / urinary bladder / thickened): 0.9 mg/kg/day | LEL (mouse [7]; [24]): 0.3 mg/kg/day | NEL (mouse [7]; [24]): < 0.3 mg/kg/day | LEL (mouse [8]): 0.27 mg/kg/day | LOAEL (mouse [8]): 0.27 mg/kg/day | NEL (mouse [8]): < 0.27 mg/kg/day | NOAEL (mouse [8]): < 0.27 mg/kg/day | NEL (dog; [25]): 0.25 mg/kg/day | NOAEL (dog; [25]): 0.25 mg/kg/day | LEL (dog; [26]): 0.75 mg/kg/day | LOAEL (dog; [26]): 0.75 mg/kg/day | NEL (rat [9]; systemic / in life observation / body weight / body weight gain + systemic / pathology gross / kidney / enlarged): 0.75 mg/kg/day | LEL (rat [9]; [27]): 3.75 mg/kg/day | LOAEL (rat [9]; [27]): > 3.75 mg/kg/day | NOAEL (rat [9]; [27]): ≥ 3.75 mg/kg/day | LEL (rat [10]; [28]): 18 mg/kg/day | LOAEL (rat [10]; [28]): > 18 mg/kg/day | NEL (rat [10]; [28]): 3 mg/kg/day | NOAEL (rat [10]; [28]): ≥ 18 mg/kg/day | LOAEL (rat [10]; [29]): 1.5 mg/kg/day | NOAEL (rat [10]; [29]): 0.5 mg/kg/day | LEL (rat [10]; [30]): 0.5 mg/kg/day | NEL (rat [10]; [30]): < 0.5 mg/kg/day | LEL (rat [11]): 2.9 mg/kg/day | LOAEL (rat [11]): 2.9 mg/kg/day | NEL (rat [11]): 0.6 mg/kg/day | NOAEL (rat [11]): 0.6 mg/kg/day | LEL (rat [12]): 11.2 mg/kg/day | LOAEL (rat [12]): > 22.2 mg/kg/day | NEL (rat [12]): < 11.2 mg/kg/day | NOAEL (rat [12]): ≥ 22.2 mg/kg/day
